The text below walks through data of PubChem BioAssay (NCI).

SMILES strings stand for the structures. Values joined by “and” are separate entries in the source; they are usually repeats but may differ in a detail not shown here. Equal values may be shown once.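 Each compound was tested at five concentrations against cells in 96-well plates for 48 hours. Abbreviation: GI50, concentration required for 50% inhibition of growth. The concentration for full growth arrest is given as TGI.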

Among the test systems are RXF-631 renal; DMS 273 small cell lung; LXFL 529 NSCLC; KM20L2 colon; DMS 114 small cell lung; HOP-18 NSCLC; XF 498 CNS; MDA-N; P388 leukemia; NCI/ADR-RES ovarian.
Holding throughout (assay): NCI tumour cell line growth inhibition, 48 h

Regarding `COc1ccc(OCC(=O)O)c2c1CCC(C(C)C)C2=O` (stereo unspecified), the TGI with RXF-631 renal, in the assay with DMS 273 small cell lung, with LXFL 529 NSCLC, with KM20L2 colon, in the assay on DMS 114 small cell lung and in the assay with HOP-18 NSCLC was more than 100 µM each time.
Turning to `CCC/C(=N\NC(=S)N1CCN(c2ccccn2)CC1)c1ccccn1`, the TGI with XF 498 CNS is 0.302 µM; in the assay on RXF-631 renal it was > 10 µM and 2.34 µM; with DMS 273 small cell lung, 1.37 µM and 1.42 µM; in the assay with LXFL 529 NSCLC it was 0.0757 µM and 0.241 µM; in the assay with MDA-N, 1.92 µM; with KM20L2 colon, 1.58 µM. The TGI in the assay on DMS 114 small cell lung is 0.111 µM; with HOP-18 NSCLC, 0.68 µM and 1.15 µM. Further, the GI50 in the assay with RXF-631 renal is 0.0384 µM; in the assay with HOP-18 NSCLC, 0.0316 µM.
With `COC(=O)C1(C)C=C(Nc2ccccc2)C(=O)N1c1ccccc1` (stereo unspecified), the TGI with XF 498 CNS, in the assay on RXF-631 renal, with LXFL 529 NSCLC, in the assay on DMS 114 small cell lung and in the assay on HOP-18 NSCLC was more than 100 µM throughout.
As for `C/C(CN1C(=O)c2ccccc2C1=O)=N\NS(=O)(=O)c1cccc([N+](=O)[O-])c1`, the TGI in the assay with XF 498 CNS, in the assay on RXF-631 renal, with DMS 273 small cell lung, in the assay with LXFL 529 NSCLC, with KM20L2 colon and with HOP-18 NSCLC was more than 100 µM in each case.
Consider `O=C1NC(=O)C(C(=O)C(=O)Nc2ccc(Br)cc2)C(=O)N1`, for which the TGI with XF 498 CNS, in the assay on RXF-631 renal, in the assay with DMS 273 small cell lung, in the assay with LXFL 529 NSCLC, in the assay on KM20L2 colon and in the assay with DMS 114 small cell lung was more than 100 µM throughout. The TGI with HOP-18 NSCLC is more than 100 µM.
Take `Cc1[nH]c(=O)[nH]c(=O)c1N(CCF)CCCl`: the GI50 in the assay with P388 leukemia is 190 µM and 58.3 µM and 223 µM; in the assay with XF 498 CNS, 334 µM and 198 µM; in the assay on DMS 273 small cell lung, 113 µM and 122 µM and 189 µM; in the assay with KM20L2 colon, 194 µM and 429 µM; with DMS 114 small cell lung it was 148 µM; in the assay with HOP-18 NSCLC, 401 µM and 719 µM and 415 µM. Moreover, in the assay on NCI/ADR-RES ovarian, the GI50 was 443 µM and 206 µM. The TGI with P388 leukemia was 485 µM and 1330 µM and 791 µM; in the assay on XF 498 CNS, 679 µM and 554 µM; in the assay on DMS 273 small cell lung, 330 µM and 470 µM and 560 µM; in the assay with MDA-N, 828 µM; in the assay with KM20L2 colon, 455 µM and 1280 µM and 619 µM; in the assay on DMS 114 small cell lung, 371 µM and 771 µM and 436 µM. Also, the TGI in the assay on HOP-18 NSCLC was 927 µM and 2060 µM and 1190 µM; with NCI/ADR-RES ovarian, 0.82 mM and 1.13 mM and 1.09 mM.
Take `O=C(CCN1CCN(c2cccc(Cl)c2)CC1)N1CCc2c([nH]c3ccccc23)C1c1cccnc1` (stereo unspecified): the TGI in the assay on XF 498 CNS was 9.57 µM; with RXF-631 renal, more than 100 µM; in the assay on DMS 273 small cell lung, 19.1 µM; in the assay on LXFL 529 NSCLC it was 19.6 µM; with KM20L2 colon, 20.1 µM; in the assay with HOP-18 NSCLC, 32.5 µM. Also, the GI50 was 8.64 µM with RXF-631 renal, 6.6 µM in the assay with DMS 273 small cell lung, 6.24 µM with LXFL 529 NSCLC and 4.71 µM in the assay on KM20L2 colon.
Take `COc1cccc(N2C(=O)c3c(c4[nH]c5ccccc5c4c4ccc(C(C)(C)C)cc34)C2=O)c1`: the TGI in the assay on XF 498 CNS, with RXF-631 renal, in the assay on DMS 273 small cell lung, in the assay with LXFL 529 NSCLC, in the assay on KM20L2 colon and in the assay on DMS 114 small cell lung was more than 100 µM in each case. In the assay on HOP-18 NSCLC, this molecule had a TGI of more than 100 µM.
For the molecule `CN(C)CCCCN1CCc2c(n(C)c3ccccc23)C1=O`, the TGI in the assay on XF 498 CNS was 43.6 µM; in the assay on DMS 273 small cell lung it was more than 100 µM; in the assay on LXFL 529 NSCLC, 35.1 µM; in the assay on MDA-N, 18.3 µM and 34.2 µM; with KM20L2 colon, more than 72.9 µM; in the assay on DMS 114 small cell lung, more than 100 µM. In addition, the TGI in the assay with HOP-18 NSCLC is more than 100 µM; in the assay on NCI/ADR-RES ovarian, more than 0.1 mM.
`CCCCCCCCCCCCCS(=O)(=O)O`: the TGI in the assay on XF 498 CNS, with RXF-631 renal, with LXFL 529 NSCLC, with KM20L2 colon, with DMS 114 small cell lung and in the assay on HOP-18 NSCLC was more than 100 µM throughout.
For `CC(=O)Nc1ccc(/C=C(\NC(=O)c2ccccc2)c2nc3ccc4c(c3[nH]2)C(=O)c2ccccc2C4=O)cc1`, the TGI in the assay on XF 498 CNS, in the assay on DMS 273 small cell lung, in the assay on LXFL 529 NSCLC, in the assay on KM20L2 colon, in the assay with DMS 114 small cell lung and in the assay on HOP-18 NSCLC was more than 100 µM throughout.
With `CC(=O)N1CCC2(C=Nc3ccccc32)CC1`, the TGI in the assay on XF 498 CNS, in the assay with DMS 273 small cell lung, with LXFL 529 NSCLC, with KM20L2 colon, with DMS 114 small cell lung and in the assay with HOP-18 NSCLC was more than 100 µM in each case.
`CSC(=S)c1ccc(C(=S)SC)cc1`: the TGI in the assay on XF 498 CNS, in the assay with RXF-631 renal, in the assay with DMS 273 small cell lung, with LXFL 529 NSCLC, in the assay with KM20L2 colon and in the assay with DMS 114 small cell lung was more than 100 µM in each case. Also, the TGI with HOP-18 NSCLC was more than 100 µM.
`C/C(=N\NC(=S)N1CCCCCC1)c1nccnc1C`: the TGI in the assay with XF 498 CNS was 9.89 µM; in the assay with DMS 273 small cell lung it was 11.4 µM; in the assay on LXFL 529 NSCLC, more than 100 µM; with KM20L2 colon, more than 100 µM; in the assay on DMS 114 small cell lung it was 0.0275 µM; in the assay on HOP-18 NSCLC it was 76.8 µM.
For the molecule `Cn1ncc(=S)[nH]c1=S`, the TGI in the assay with XF 498 CNS, in the assay on RXF-631 renal, with DMS 273 small cell lung, with LXFL 529 NSCLC, with KM20L2 colon and with DMS 114 small cell lung was more than 100 µM each time. This molecule also came in with a TGI in the assay with HOP-18 NSCLC of more than 100 µM.
Regarding `CC(C)C(C(=O)O)N(CC1(O)OCC(O)C(O)C1O)N=O` (stereo unspecified), the TGI with XF 498 CNS, in the assay on RXF-631 renal, with DMS 273 small cell lung, with LXFL 529 NSCLC, in the assay with KM20L2 colon and with DMS 114 small cell lung was more than 100 µM throughout.
Take `CCN(CC)CCCN(c1cc(OC)cc2nccnc12)S(=O)(=O)c1ccc(C)cc1`: the TGI in the assay with XF 498 CNS, in the assay on RXF-631 renal, in the assay with DMS 273 small cell lung, in the assay on LXFL 529 NSCLC, in the assay on KM20L2 colon and in the assay with DMS 114 small cell lung was more than 100 µM in each case. Further, the TGI with HOP-18 NSCLC is more than 100 µM.
For `O=C(Nc1ccc(Cl)c(C(F)(F)F)c1)C(=O)C(C(=O)/C=C/c1ccccc1)C1OC(=O)c2ccccc21` (stereo unspecified), the TGI with XF 498 CNS, in the assay with DMS 273 small cell lung, with LXFL 529 NSCLC, in the assay with KM20L2 colon, in the assay on DMS 114 small cell lung and with HOP-18 NSCLC was more than 100 µM in each case.
